Source: patent publication US20100063047A1 (KALYPSYS, INC., priority 2008, published 2010)

Biological target: T1, human H1 (Homo sapiens, UniProt P35367)
T1 construct: host or cells: CHO-K1, also expressing mitochondrion-targeted aequorin
Test: In vitro histamine H1 receptor cell-based aequorin bioluminescence antagonist assay
Details: CHO-K1 cells expressing human H1 and aequorin; histamine at EC80; read-out: H1 Antagonist EC50
Experimental: In vitro Histamine Receptor Cell-Based Assays
The cell-based assays utilize an aequorin dependent bioluminescence signal. Doubly-transfected, stable CHO—K1 cell lines expressing human H1 or H4, mitochondrion-targeted aequorin, and (H4 only) human G protein Gα16 are obtained from Perkin-Elmer. Cells are maintained in F12 (Ham's) growth medium, containing 10% (vol./vol.) fetal bovine serum, penicillin (100 IU/mL), streptomycin (0.1 mg/mL), zeocin (0.25 mg/mL) and geneticin (0.40 mg/mL). Cell media components are from Invitrogen, Inc. One day prior to assay, the growth medium is replaced with the same, excluding zeocin and geneticin.
For assay preparation, growth medium is aspirated, and cells are rinsed with calcium-free, magnesium-free phosphate-buffered saline, followed by two to three minute incubation in Versene (Invitrogen, Inc.) at 37° C. Assay medium (DMEM:F12 [50:50], phenol-red free, containing 1 mg/mL protease-free bovine serum albumin) is added to collect the released cells, which are then centrifuged. The cell pellet is re-suspended in assay medium, centrifuged once more, and re-suspended in assay medium to a final density of 5×10^6 cells/mL. Coelenterazine-h dye (500 μM in ethanol) is added to a final concentration of 5 μM, and mixed immediately. The conical tube containing the cells is then wrapped with foil to protect the light-sensitive dye. The cells are incubated for four hours further at room temperature (approximately 21° C.) with end-over-end rotation to keep them in suspension.
Just before assay, the dye-loaded cells are diluted to 0.75×10^6 cells/mL (H1 receptor) or 1.5×10^6 cells/mL (H4 receptor) with additional assay medium. Cells are dispensed to 1536 well micro-titer plates at 3 μL/well. To assay receptor antagonism, 60 nl of 100× concentration test compounds in 100% dimethyl sulfoxide (DMSO) are dispensed to the wells, one compound per well, by passive pin transfer, and the plates are incubated for 15 minutes at room temperature. […] The pipette dispenses 3 μL/well of agonist (histamine, at twice the final concentration, where final concentration is a previously determined EC80) in assay medium, with concurrent bioluminescence detection. Agonist activity of test compounds is excluded by separate assays that measure response to test compounds immediately, without added histamine agonist.
CCD image capture on the Lumilux includes a 5 second baseline read prior to agonist addition, and generally a 40 second read per plate after agonist addition. A decrease in bioluminescence signal (measured either as area-under-the-curve, or maximum signal amplitude minus minimum signal amplitude) correlates with receptor antagonism in a dose dependent manner. The negative control is DMSO lacking any test compound. For antagonist assays, the positive controls are diphenhydramine (2-Diphenylmethoxy-N,N-dimethylethylamine, 10 μM final concentration, H1 receptor) or JNJ7777120 (1-[(5-Chloro-1H-indol-2-yl)carbonyl]-4-methyl-piperazine, 10 μM final concentration, H4 receptor). Efficacy is measured as a percentage of positive control activity.

T1 sequence (P35367 whole entry): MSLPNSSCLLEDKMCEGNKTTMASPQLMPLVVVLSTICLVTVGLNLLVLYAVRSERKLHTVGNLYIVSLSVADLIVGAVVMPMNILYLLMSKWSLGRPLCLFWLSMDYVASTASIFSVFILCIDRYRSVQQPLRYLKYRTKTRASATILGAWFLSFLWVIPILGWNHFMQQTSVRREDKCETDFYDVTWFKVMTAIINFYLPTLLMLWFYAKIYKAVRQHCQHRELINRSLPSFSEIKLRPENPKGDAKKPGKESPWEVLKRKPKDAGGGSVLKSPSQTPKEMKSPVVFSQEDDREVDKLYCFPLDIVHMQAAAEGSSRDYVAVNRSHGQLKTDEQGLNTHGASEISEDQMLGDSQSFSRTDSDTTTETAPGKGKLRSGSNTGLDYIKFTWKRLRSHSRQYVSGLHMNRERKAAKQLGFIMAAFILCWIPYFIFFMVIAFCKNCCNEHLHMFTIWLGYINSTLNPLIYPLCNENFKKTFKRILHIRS

Compound	EC50
Cc1csc2ncnc(NC(C)CCc3ccccc3)c12 (stereo not shown) [Example 139, 5-methyl-N-(4-phenylbutan-2-yl)thieno[2,3-d]pyrimidin-4-amine]	> 10 µM
Cc1ccc(N2CCN(c3ncnc4scc(C)c34)CC2)c(C)c1 [Example 258, 1-(2,4-dimethylphenyl)-4-{5-methylthieno[2,3-d]pyrimidin-4-yl}piperazine]	> 10 µM
COc1ccc(CNc2ncnc3scc(C)c23)cc1 [Example 124, N-[(4-methoxyphenyl)methyl]-5-methylthieno[2,3-d]pyrimidin-4-amine]	> 10 µM
Cc1csc2ncnc(N3CCCCC3CO)c12 (stereo not shown) [Example 206, (1-{5-methylthieno[2,3-d]pyrimidin-4-yl}piperidin-2-yl)methanol]	> 10 µM
Cc1csc2ncnc(C(=O)CCc3ccc(Cl)cc3)c12 [Example 25, 3-(4-chlorophenyl)-1-(5-methylthieno[2,3-d]pyrimidin-4-yl)propan-1-one]	> 10 µM
Cc1csc2ncnc(N3CCC(N(C)C(=O)OC(C)(C)C)C3)c12 (stereo not shown) [Example 270, tert-butyl N-methyl-N-(1-{5-methylthieno[2,3-d]pyrimidin-4-yl}pyrrolidin-3-yl)carbamate]	> 10 µM
Cc1sc2ncnc(N3CCC(C(=O)OCc4ccc(C#N)cc4)CC3)c2c1C [Example 306, 4-cyanobenzyl 1-(5,6-dimethylthieno[2,3-d]pyrimidin-4-yl)piperidine-4-carboxylate]	> 10 µM
COc1ccc(CNc2ncnc3scc(C)c23)cc1OC [Example 160, N-[(3,4-dimethoxyphenyl)methyl]-5-methylthieno[2,3-d]pyrimidin-4-amine]	> 10 µM
Cc1csc2ncnc(NCc3ccc4c(c3)OCO4)c12 [Example 141, N-(2H-1,3-benzodioxol-5-ylmethyl)-5-methylthieno[2,3-d]pyrimidin-4-amine]	> 10 µM
Cc1csc2ncnc(NCc3ccc(F)c(F)c3)c12 [Example 134, N-[(3,4-difluorophenyl)methyl]-5-methylthieno[2,3-d]pyrimidin-4-amine]	> 10 µM
Cc1csc2ncnc(NCCCNC(=O)OC(C)(C)C)c12 [Example 163, tert-butyl N-[3-({5-methylthieno[2,3-d]pyrimidin-4-yl}amino)propyl]carbamate]	> 10 µM
CCC1CCC(Nc2ncnc3scc(C)c23)CC1 (stereo not shown) [Example 22, (4-Ethylcyclohexyl)(5-methylthiopheno[3,2-e]pyrimidin-4-yl)amine]	> 10 µM
Cc1csc2ncnc(NCC3CC3)c12 [Example 59, N-(cyclopropylmethyl)-5-methylthieno[2,3-d]pyrimidin-4-amine]	> 10 µM
CCC(CO)Nc1ncnc2scc(C)c12 (stereo not shown) [Example 73, 2-({5-methylthieno[2,3-d]pyrimidin-4-yl}amino)butan-1-ol]	> 10 µM
Cc1csc2ncnc(NCC3CCCCC3)c12 [Example 89, N-(cyclohexylmethyl)-5-methylthieno[2,3-d]pyrimidin-4-amine]	> 10 µM
Cc1csc2ncnc(NCc3cccc(F)c3)c12 [Example 102, N-[(3-fluorophenyl)methyl]-5-methylthieno[2,3-d]pyrimidin-4-amine]	> 10 µM
Cc1csc2ncnc(N3CCc4ccccc4C3)c12 [Example 216, 2-{5-methylthieno[2,3-d]pyrimidin-4-yl}-1,2,3,4-tetrahydroisoquinoline]	> 10 µM
Cc1csc2ncnc(NCCc3c[nH]c4ccccc34)c12 [Example 155, N-[2-(1H-indol-3-yl)ethyl]-5-methylthieno[2,3-d]pyrimidin-4-amine]	> 10 µM
Clc1ccc(CCNc2ncnc3sc4c(c23)CCCC4)c(Cl)c1 [Example 313]	> 10 µM
CCCC(Nc1ncnc2sccc12)c1ccccc1 (stereo not shown) [Example 307, N-(1-phenylbutyl)thieno[2,3-d]pyrimidin-4-amine]	> 10 µM
COc1ccccc1CCNc1ncnc2scc(C)c12 [Example 145, N-[2-(2-methoxyphenyl)ethyl]-5-methylthieno[2,3-d]pyrimidin-4-amine]	> 10 µM
COc1ccc(CCNc2ccnc3scc(C)c23)cc1 [Example 37, N-(4-methoxyphenethyl)-3-methylthieno[2,3-b]pyridin-4-amine]	> 10 µM

Compound	EC50
Cc1csc2ncnc(NCc3ccc(F)cc3F)c12 [Example 133, N-[(2,4-difluorophenyl)methyl]-5-methylthieno[2,3-d]pyrimidin-4-amine]	> 10 µM
Cc1csc2ncnc(CCCc3ccc(Cl)cc3)c12 [Example 23, 4-(3-(4-chlorophenyl)propyl)-5-methylthieno[2,3-d]pyrimidine]	> 10 µM
Cc1csc2ncnc(NC3CCc4ccccc43)c12 (stereo not shown) [Example 111, N-(2,3-dihydro-1H-inden-1-yl)-5-methylthieno[2,3-d]pyrimidin-4-amine]	> 10 µM
CCC(C)CNc1ncnc2scc(C)c12 (stereo not shown) [Example 67, 5-methyl-N-(2-methylbutyl)thieno[2,3-d]pyrimidin-4-amine]	> 10 µM
Cc1ccc(C)c(CNc2ncnc3scc(C)c23)c1 [Example 113, N-[(2,5-dimethylphenyl)methyl]-5-methylthieno[2,3-d]pyrimidin-4-amine]	> 10 µM
CCOC(=O)CC(C)Nc1ncnc2scc(C)c12 (stereo not shown) [Example 110, ethyl 3-({5-methylthieno[2,3-d]pyrimidin-4-yl}amino)butanoate]	> 10 µM
Cc1csc2ncnc(NC3CCCC(C)C3)c12 (stereo not shown) [Example 41, 5-methyl-N-(3-methylcyclohexyl)thieno[2,3-d]pyrimidin-4-amine]	> 10 µM
Cc1csc2ncnc(NCCCN(C)c3ccccc3)c12 [Example 157, N-methyl-N-[3-({5-methylthieno[2,3-d]pyrimidin-4-yl}amino)propyl]aniline]	> 10 µM
Cc1csc2ncnc(NC(C)CC(C)C)c12 (stereo not shown) [Example 79, 5-methyl-N-(4-methylpentan-2-yl)thieno[2,3-d]pyrimidin-4-amine]	> 10 µM
OCCCCNc1ncnc2scc(-c3ccccc3)c12 [Example 312, 4-(5-phenylthieno[2,3-d]pyrimidin-4-ylamino)butan-1-ol]	> 10 µM
COc1ccccc1CNc1ncnc2scc(C)c12 [Example 123, N-[(2-methoxyphenyl)methyl]-5-methylthieno[2,3-d]pyrimidin-4-amine]	> 10 µM
COC[C@@H]1CCCN1c1ncnc2scc(C)c12 [Example 205, (2S)-2-(methoxymethyl)-1-{5-methylthieno[2,3-d]pyrimidin-4-yl}pyrrolidine]	> 10 µM
Cc1csc2ncnc(N3CCSC3)c12 [Example 189, 3-{5-methylthieno[2,3-d]pyrimidin-4-yl}-1,3-thiazolidine]	> 10 µM
Cc1csc2ncnc(N3CCCCC3CCO)c12 (stereo not shown) [Example 215, 2-(1-{5-methylthieno[2,3-d]pyrimidin-4-yl}piperidin-2-yl)ethan-1-ol]	> 10 µM
Cc1csc2ncnc(NC3CCCC3)c12 [Example 65, N-cyclopentyl-5-methylthieno[2,3-d]pyrimidin-4-amine]	> 10 µM
CCCCN(Cc1ccccc1)c1ncnc2scc(C)c12 [Example 235, N-benzyl-N-butyl-5-methylthieno[2,3-d]pyrimidin-4-amine]	> 10 µM
Cc1csc2ncnc(NCc3ccc(Cl)cc3)c12 [Example 131, N-[(4-chlorophenyl)methyl]-5-methylthieno[2,3-d]pyrimidin-4-amine]	> 10 µM
Cc1csc2ncnc(NCc3cc(F)cc(F)c3)c12 [Example 135, N-[(3,5-difluorophenyl)methyl]-5-methylthieno[2,3-d]pyrimidin-4-amine]	> 10 µM
COc1ccc(CCNc2ncnc3sccc23)cc1 [Example 48, N-[2-(4-methoxyphenyl)ethyl]thieno[2,3-d]pyrimidin-4-amine]	> 10 µM
Cc1csc2ncnc(NCCC(C)(C)C)c12 [Example 78, N-(3,3-dimethylbutyl)-5-methylthieno[2,3-d]pyrimidin-4-amine]	> 10 µM
Cc1csc2ncnc(NCc3ccccc3Cl)c12 [Example 130, N-[(2-chlorophenyl)methyl]-5-methylthieno[2,3-d]pyrimidin-4-amine]	> 10 µM
